Test results as given in PubChem BioAssay AID1159586 (Gregory J. Crowther, 2016).

target: Plasmodium falciparum protein kinase 6 (PK6, PF3D7_1337100) (UniProt Q8IDW1); assay: PfPK6 kinase inhibitors, biochemical, TCAMS library (AID 1159586); settings: recombinant PfPK6, Kinase-Glo ATP depletion luminescence
Sequence (Q8IDW1 1-305): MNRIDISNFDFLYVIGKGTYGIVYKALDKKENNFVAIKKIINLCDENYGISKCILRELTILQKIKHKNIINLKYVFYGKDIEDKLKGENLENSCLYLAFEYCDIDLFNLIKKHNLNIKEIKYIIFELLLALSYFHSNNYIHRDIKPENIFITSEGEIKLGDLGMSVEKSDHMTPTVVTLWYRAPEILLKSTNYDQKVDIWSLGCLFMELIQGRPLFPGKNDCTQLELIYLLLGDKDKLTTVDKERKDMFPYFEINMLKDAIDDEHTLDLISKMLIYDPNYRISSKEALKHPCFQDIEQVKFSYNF

**Q.** For CNC(=O)c1ccccc1Nc1nc(Nc2cccc(CS(C)(=O)=O)c2)ncc1C, which IC50 is on record?
**A.** 133 nM

**Q.** With CCN(CC)CCCOc1ccc(Nc2nccc(-c3c(-c4cccc(NC(=O)c5c(F)cccc5F)c4)nn4ccccc34)n2)cc1F as the compound, how does the IC50 read?
**A.** 302 nM

**Q.** O=S1(=O)NCc2ccc(Nc3nccc(Nc4ccc5c(cnn5Cc5ccccc5)c4)n3)cc21 was tested. Which IC50 did it give?
**A.** 265 nM

**Q.** Which IC50 does the source give for CN(c1ccc2c(c1)nc(NCc1ccccc1)n2C)c1ccnc(Nc2ccc(CS(C)(=O)=O)cc2)n1 here?
**A.** 464 nM

**Q.** Which IC50 does the source give for NCCNC(=O)c1ccc(-c2cnc3[nH]cc(-c4ccc(C(N)=O)cc4)c3c2)cc1 here?
**A.** 931 nM

**Q.** For Cn1c(=O)c(-c2c(Cl)cccc2Cl)cc2cnc(Nc3ccc(N4CCOCC4)cc3)nc21, which IC50 is on record?
**A.** 145 nM

**Q.** For CN(c1ccc(NC(=O)Nc2cccc(Cl)c2)cc1)c1ccnc(N)n1, which IC50 is on record?
**A.** 402 nM

**Q.** How did the IC50 turn out when N#Cc1cnc(Nc2ccc(Oc3ccccc3)cc2)nc1Nc1cccc(S(N)(=O)=O)c1 was run?
**A.** 201 nM

**Q.** Which IC50 does the source give for CCN(CC)CCNc1nccc(N(C)c2ccc(NC(=O)Nc3cc(C(F)(F)F)ccc3F)cc2)n1 here?
**A.** 917 nM

**Q.** CN(c1ccc(NC(=O)Nc2cc(C(C)(C)C)on2)cc1)c1ccnc(NCCN2CCOCC2)n1 was tested. Which IC50 did it give?
**A.** 375 nM

**Q.** With O=c1[nH]ccc2nc(N[C@@H]3CCCNC3)nc(Nc3ccc(S(=O)(=O)N4CCOCC4)cc3)c12 as the compound, how does the IC50 read?
**A.** 115 nM

**Q.** Cn1nc(-c2ccc(NC(=O)Nc3ccc4ccccc4c3)c(F)c2)c2cnc(NCCN3CCOCC3)nc21 was tested. Which IC50 did it give?
**A.** 860 nM

**Q.** How did the IC50 turn out when CN(c1ccc(NC(=O)Nc2cc(C(F)(F)F)ccc2F)cc1)c1ccnc(NCCN2CCOCC2)n1 was run?
**A.** 520 nM

**Q.** How did the IC50 turn out when CNC(=O)c1ccccc1Nc1nc(Nc2ccc(N3CCN(C)CC3)nc2)ncc1C was run?
**A.** 143 nM

**Q.** CN(C)Cc1cccc(-c2cc3c(-c4cnn(C)c4)c(Cl)cnc3[nH]2)c1 was tested. Which IC50 did it give?
**A.** 128 nM

**Q.** CC(=O)Nc1cccc(Nc2nccc(-c3c(-c4cccc(NC(=O)c5c(F)cccc5F)c4)nn4ncccc34)n2)c1 was tested. Which IC50 did it give?
**A.** 144 nM

**Q.** How did the IC50 turn out when CS(=O)(=O)Cc1cccc(Nc2ncc(Cl)c(Nc3cccnc3C(N)=O)n2)c1 was run?
**A.** 74 nM

**Q.** How did the IC50 turn out when N=C(N)c1ccc(Nc2nc(Nc3ccc(-c4ccccc4)cc3)ncc2[N+](=O)[O-])cc1 was run?
**A.** 164 nM

**Q.** Which IC50 does the source give for CS(=O)(=O)Cc1ccc(Nc2nccc(N3CCCc4cc(NC(=O)Nc5cccc(C(F)(F)F)c5)ccc43)n2)cc1 here?
**A.** 385 nM

**Q.** How did the IC50 turn out when Nc1ncnc2occ(-c3ccc(NC(=O)Nc4cc(C(F)(F)F)ccc4F)cc3)c12 was run?
**A.** 335 nM

**Q.** For CS(=O)(=O)Cc1ccc(Nc2nccc(-c3c(-c4cccc(NC(=O)C5CCCCC5)c4)nn4ncccc34)n2)cc1, which IC50 is on record?
**A.** 139 nM

**Q.** Which IC50 does the source give for CNC(=O)c1ccccc1Nc1nc(Nc2ccc(N3CCOCC3)cc2)ncc1Cl here?
**A.** 42 nM

**Q.** Which IC50 does the source give for CCN(CC)CCCNc1nccc(N(C)c2ccc(NC(=O)Nc3cc(C(F)(F)F)ccc3F)cc2)n1 here?
**A.** 705 nM

**Q.** Which IC50 does the source give for NCCNS(=O)(=O)c1ccc(-c2ccnc3[nH]c(-c4ccncc4)cc23)cc1 here?
**A.** 207 nM

**Q.** CC(=O)c1ccc(NC(=O)Nc2ccc(N(C)c3ccnc(Nc4cccc(CS(C)(=O)=O)c4)n3)cc2)cc1 was tested. Which IC50 did it give?
**A.** 138 nM

**Q.** CN(c1ccc2c(c1)nc(NCc1ccc(F)cc1)n2C)c1ccnc(Nc2ccc(CS(C)(=O)=O)cc2)n1 was tested. Which IC50 did it give?
**A.** 844 nM

**Q.** For O=C(Nc1cccc(-c2nn3ccccc3c2-c2ccnc(Nc3ccc(NCCCN4CCOCC4)c(F)c3)n2)c1)c1c(F)cccc1F, which IC50 is on record?
**A.** 580 nM

**Q.** How did the IC50 turn out when CCN(CC)CCNC(=O)c1ccc(Nc2ncc([N+](=O)[O-])c(Nc3ccccc3OC)n2)cc1 was run?
**A.** 110 nM

**Q.** CS(=O)(=O)Cc1ccc(Nc2ncc(Cl)c(Nc3cccnc3C(N)=O)n2)cc1 was tested. Which IC50 did it give?
**A.** 691 nM

**Q.** For CS(=O)(=O)Cc1ccc(Nc2nccc(-c3c(-c4cccc(C(=O)Nc5c(F)cccc5F)c4)nn4ccccc34)n2)cc1, which IC50 is on record?
**A.** 105 nM

**Q.** How did the IC50 turn out when CCN(CC)CCOc1ccc(Nc2ncc3cc(-c4c(Cl)cccc4Cl)c(=O)n(C)c3n2)cc1 was run?
**A.** 350 nM

**Q.** With CS(=O)(=O)Cc1ccc(Nc2nccc(-c3c(-c4cccc(NC(=O)c5c(F)cccc5F)c4)nn4ccccc34)n2)cc1 as the compound, how does the IC50 read?
**A.** 276 nM

**Q.** COc1ccc(Nc2ncc(C#N)c(Nc3ccccc3C(N)=O)n2)cc1N1CCN(C)CC1 was tested. Which IC50 did it give?
**A.** 61 nM

**Q.** C#CCNC(=O)c1ccc(-c2ccnc(Nc3cccc(CCCN4CCOCC4)c3)n2)s1 was tested. Which IC50 did it give?
**A.** 181 nM

**Q.** How did the IC50 turn out when Cc1cc(Nc2ncc(C#N)c(Nc3ccccc3C(N)=O)n2)ccc1N1CCN(C)CC1 was run?
**A.** 54 nM

**Q.** For CC(=O)Nc1nc(C)c(-c2csc(Nc3ccc(Cl)cc3)n2)s1, which IC50 is on record?
**A.** 95 nM

**Q.** With Nc1ncc(-c2cccc(F)c2)cc1-c1nc2ccc(F)cc2[nH]1 as the compound, how does the IC50 read?
**A.** 206 nM

**Q.** For Cc1cc(Nc2nc(Nc3cccc(Cl)c3)nc3ccccc23)n[nH]1, which IC50 is on record?
**A.** 151 nM

**Q.** For N=C(N)c1ccc(Nc2nccc(Nc3nc(-c4ccccc4)cs3)n2)cc1, which IC50 is on record?
**A.** 413 nM

**Q.** For Cn1cc(-c2ccnc3[nH]c(-c4cccc(CNC5CCC(O)CC5)c4)cc23)cn1 (centres undefined), which IC50 is on record?
**A.** 177 nM

**Q.** COc1ccc(Nc2ncc(OC)c(Nc3ccccc3C(N)=O)n2)cc1N1CCN(C)CC1 was tested. Which IC50 did it give?
**A.** 270 nM

**Q.** How did the IC50 turn out when CC(=O)Nc1ccc(Nc2ncc([N+](=O)[O-])c(Nc3ccccc3C(N)=O)n2)cc1 was run?
**A.** 128 nM

**Q.** For Cc1cc(Nc2ncc(Cl)c(Nc3ccccc3C(N)=O)n2)n[nH]1, which IC50 is on record?
**A.** 129 nM

**Q.** For COc1c(CN2CCOCC2)cccc1-c1cc2c(-c3ccc(C(=O)O)c(C(C)C)c3)ccnc2[nH]1, which IC50 is on record?
**A.** 695 nM

**Q.** How did the IC50 turn out when CN1CCN(c2ccc(Nc3nccc(-c4cnn5ncccc45)n3)cc2Cl)CC1 was run?
**A.** 179 nM

**Q.** With Cc1ccc(Nc2ccnc(Nc3ccc4c(c3)CS(=O)(=O)C4)n2)cc1O as the compound, how does the IC50 read?
**A.** 122 nM

**Q.** With COc1cccc(-n2ncc3c(N/N=C/c4ccc(CN(C)CCN(C)C)cc4)ncnc32)c1 as the compound, how does the IC50 read?
**A.** 58 nM

**Q.** For COc1ccc(Nc2ncc3c(-c4cccc(NC(=O)Cc5ccc(O)cc5)c4)c[nH]c3n2)cc1OC, which IC50 is on record?
**A.** 445 nM

**Q.** How did the IC50 turn out when CNC(=O)c1ccccc1Nc1nc(Nc2ccc(CCN3CCN(C)CC3)cc2)ncc1Cl was run?
**A.** 70 nM

**Q.** For CN1CCC(NC(=O)c2cccc(Nc3cc(Nc4cccc(Br)c4)ncn3)c2)CC1, which IC50 is on record?
**A.** 602 nM

**Q.** With COc1ccc(Nc2ncc(Cl)c(Nc3cccnc3C(N)=O)n2)cc1N1CCN(C)CC1 as the compound, how does the IC50 read?
**A.** 86 nM

**Q.** With COc1c(CN2CCCC2)cccc1-c1cc2c(-c3ccc(C(=O)O)c(C(C)C)c3)ccnc2[nH]1 as the compound, how does the IC50 read?
**A.** 541 nM

**Q.** For Cn1cnc2c(Nc3ccncc3)nc(-c3ccc4c(c3)OCO4)nc21, which IC50 is on record?
**A.** 500 nM

**Q.** Which IC50 does the source give for C(=N\Nc1nccc2sc(-c3ccccc3)cc12)/c1cccnc1 here?
**A.** 278 nM

**Q.** With NS(=O)(=O)c1ccc(Nc2nccc(-c3c(-c4cccc(NC(=O)c5c(F)cccc5F)c4)nn4ccccc34)n2)cc1 as the compound, how does the IC50 read?
**A.** 140 nM

**Q.** For O=C(Cc1ccc(Nc2nccc(Nc3cccc4[nH]ncc34)n2)cc1)Nc1ccc(C(F)(F)F)cc1, which IC50 is on record?
**A.** 167 nM

**Q.** How did the IC50 turn out when Cc1ccc(Nc2nc3cc(Nc4ccnc(Nc5cccc(CS(C)(=O)=O)c5)n4)ccc3o2)cc1 was run?
**A.** 229 nM

**Q.** For CCNC(=O)Nc1ccc(N(C)c2ccnc(Nc3ccc(CS(C)(=O)=O)cc3)n2)cc1, which IC50 is on record?
**A.** 269 nM

**Q.** NC(=O)c1ccccc1Nc1nc(Nc2cccc(N3CCN(CCO)CC3)c2)ncc1Cl was tested. Which IC50 did it give?
**A.** 80 nM

**Q.** Which IC50 does the source give for CC(c1cccc(Nc2nccc(-c3c(-c4cccc(NC(=O)c5c(F)cccc5F)c4)nn4ncccc34)n2)c1)S(C)(=O)=O (centres undefined) here?
**A.** 375 nM

**Q.** CN(C)CC(O)COc1ccc(Nc2ncc([N+](=O)[O-])c(Nc3ccccc3O)n2)cc1 (centres undefined) was tested. Which IC50 did it give?
**A.** 67 nM

**Q.** For CN1CCN(c2ccc(Nc3ncc(C#N)c(Nc4ccccc4C(N)=O)n3)cc2)CC1, which IC50 is on record?
**A.** 89 nM

**Q.** NS(=O)(=O)c1cccc(Nc2nccc(-c3cnn4ncccc34)n2)c1 was tested. Which IC50 did it give?
**A.** 246 nM

**Q.** Which IC50 does the source give for Cc1ccc(S(=O)(=O)Nc2ccc(Nc3nccc(Nc4cccc5[nH]ncc45)n3)cc2)cc1 here?
**A.** 823 nM
